Results: patent US20130252930A1 (BIOMARIN PHARMACEUTICAL INC., priority 2010, published 2013)
Where two headings read alike, the source gives them in different places.

Legend:
[1] = target: T1, CYP17 (human testicular microsome) (Homo sapiens, UniProt P05093); test: CYP17 enzymatic assay (IC50) (Biological Example 4); format: biochemical
T1 construct: using microsomal fraction from human testis (Celsis Cat #S00110) as the enzyme source; tissue Celsis S00110; host or cells: human testis microsomal fraction
T1 sequence (P05093 1-508): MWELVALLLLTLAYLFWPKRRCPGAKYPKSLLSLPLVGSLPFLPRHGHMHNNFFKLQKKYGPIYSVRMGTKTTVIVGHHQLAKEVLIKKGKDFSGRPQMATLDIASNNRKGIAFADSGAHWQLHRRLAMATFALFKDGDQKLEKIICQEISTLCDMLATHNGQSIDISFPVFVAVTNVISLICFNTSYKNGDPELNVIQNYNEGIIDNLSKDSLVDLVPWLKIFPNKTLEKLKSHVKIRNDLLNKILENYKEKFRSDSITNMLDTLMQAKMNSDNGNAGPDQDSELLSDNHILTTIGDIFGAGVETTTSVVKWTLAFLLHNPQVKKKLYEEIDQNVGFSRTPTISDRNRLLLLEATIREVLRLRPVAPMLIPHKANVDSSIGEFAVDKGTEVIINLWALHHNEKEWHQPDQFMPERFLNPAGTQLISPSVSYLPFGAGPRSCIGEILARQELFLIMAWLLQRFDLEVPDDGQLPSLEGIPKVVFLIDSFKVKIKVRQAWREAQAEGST

[2] = Rat liver microsome stability assay (Biological Example 8a); conditions: liver microsomes, pH 7.4
[3] = target: T2, Cyp21 enzyme (Human HEK 293-Cyp21 stable transfected cells) (Homo sapiens, UniProt P08686); test: CYP21-HEK293 enzymatic assay (% inhibition at 100 nM) (Biological Example 10); format: cell-based; conditions: 100 nM compound, HEK 293-Cyp21 cells; read-out: Biological Example No. 10: CYP21-HEK293 percent inhibition at 100 nM
T2 construct: expressed in transfected cells
T2 sequence (P08686 1-495): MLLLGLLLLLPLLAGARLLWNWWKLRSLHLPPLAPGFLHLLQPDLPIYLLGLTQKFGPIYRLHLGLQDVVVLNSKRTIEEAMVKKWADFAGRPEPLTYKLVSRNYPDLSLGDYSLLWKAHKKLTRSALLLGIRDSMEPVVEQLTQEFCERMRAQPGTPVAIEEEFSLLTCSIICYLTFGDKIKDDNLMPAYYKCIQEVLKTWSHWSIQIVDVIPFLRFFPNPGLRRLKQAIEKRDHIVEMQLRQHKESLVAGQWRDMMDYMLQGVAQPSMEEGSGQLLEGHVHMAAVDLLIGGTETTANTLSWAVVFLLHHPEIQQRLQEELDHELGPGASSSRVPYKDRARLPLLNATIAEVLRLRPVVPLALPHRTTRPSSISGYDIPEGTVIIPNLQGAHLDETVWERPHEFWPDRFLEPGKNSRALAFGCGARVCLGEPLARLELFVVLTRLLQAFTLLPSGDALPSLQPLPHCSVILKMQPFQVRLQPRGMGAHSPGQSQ
Method in brief: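 HEK293 cells stably expressing human Cyp21 in DMEM + 10% FBS got compound (100 nM reported) for 5 h at 37 °C; 1% methanol served as mock. Progesterone substrate (final 10 μM) was then added for 20 h. DOC in the medium was measured by competitive ELISA (OD 450 nm) against a standard curve.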

[4] = target: T1, CYP17 (human testicular microsome); test: CYP17 enzymatic assay (% inhibition at 10 nM), version 1 (Biological Example 5); format: biochemical; conditions: 10 nM compound, DHEA by ELISA, read-out: Biological Example No. 5: CYP17 percent inhibition at 10 nM (version 1)
[5] = Human liver microsome stability assay (Biological Example 8b); conditions: liver microsomes, pH 7.4
[6] = test system: rat Cyp11B enzyme (rat adrenal mitochondria); test: CYP11B enzymatic assay (% inhibition at 100 nM) (Biological Example 9); format: biochemical; conditions: 100 nM compound, cortisol by ELISA
Method in brief: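 Sprague Dawley rat adrenal mitochondria were incubated with compound at 100 nM, 0.5 mM NADPH and 0.1 μM 11-deoxycortisol (pH 7.4 Tris buffer) for 60 min at 37 °C. Cortisol was measured by ELISA and corrected by subtracting the no-NADPH background. % inhibition is relative to the no-compound reaction.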

CYP17 (H295R cells) = target: T3, CYP17 (H295R cells) (Homo sapiens, UniProt P05093); test: CYP17 cellular assay (IC50), testosterone in H295R cells (Biological Example 7); format: cell-based; conditions: H295R cells, testosterone by ELISA, 24 hours; read-out: Biological Example No. 7: CYP17 cellular assay IC50
T3 construct: endogenous in cells; host or cells: H295R cells
T3 sequence (P05093 1-508): T1 sequence (P05093 1-508)
Method in brief: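 H295R cells cultured 24 h, then exposed to compound at 100, 10, 1, 0.1 nM final in serum-free DMEM/F-12 with ITS+ and 0.1% methanol for 24 h at 37 °C. Medium testosterone measured by ELISA and plotted against compound concentration.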

[7] = target: T1, CYP17 (human testicular microsome); test: CYP17 enzymatic assay (% inhibition at 1 nM) (Biological Example 12); format: biochemical
in vitro = conditions: human, microsomes, pH 7.4
[8] = human testicular microsome, DHEA by ELISA, read-out: Biological Example No. 4: CYP17 enzymatic assay IC50
[9] = compound at 1 nM, read-out: CYP17 enzymatic assay % inhibition at 1 nM (Biological Example No. 12)

IC50 [1, 8] [nM] | half-life at 1 μM [2] [min] | inhibition at 0.1 µM [3] [%] | inhibition at 0.01 µM [4] [%] | SMILES | half-life at 1 μM [5] [min] | inhibition at 0.001 µM [7, 9] [%] | half-life at 1 μM (in vitro) [min] | also measured
< 11 | 10 to 60 | ≥ 30 | 50 to 80 | Cc1cncc(C2=CC[C@H]3[C@@H]4CCC5=CC(=O)NCC[C@]5(C)[C@H]4CC[C@]23C)c1 [Compound 51] | – | – | – | –
– | 1 to 10 | < 30 | > 80 | C[C@]12CCNC(=O)C=C1CC[C@@H]1[C@@H]2CC[C@]2(C)C(n3ccnn3)=CC[C@@H]12 [Compound 59] | > 50 | – | – | Biological Example No. 9: CYP11B percent inhibition at 100 nM [6]: na (“na” means the compound was not active under the conditions tested)
– | 1 to 10 | ≥ 30 | 50 to 80 | C[C@]12CCNC(=O)C=C1CC[C@@H]1[C@@H]2CC[C@]2(C)C(c3cncnc3)=CC[C@@H]12 [Compound 60, (5aR,7aS)-5a,7a-dimethyl-8-(pyrimidin-5-yl)-4,5,5a,5b,6,7,7a,10,10a,10b,11,12-dodecahydrocyclopenta[5,6]naphtho[2,1-c]azepin-3(2H)-one] | – | – | – | –
– | 1 to 10 | ≥ 30 | > 80 | C[C@]12CCNC(=O)C=C1CC[C@@H]1[C@@H]2CC[C@]2(C)C(c3cnccn3)=CC[C@@H]12 [Compound 61, (5aR,7aS)-5a,7a-dimethyl-8-(pyrazin-2-yl)-4,5,5a,5b,6,7,7a,10,10a,10b,11,12-dodecahydrocyclopenta[5,6]naphtho[2,1-c]azepin-3(2H)-one] | – | – | – | –
< 11 | 10 to 60 | < 30 | > 80 | CN1CC[C@@]2(C)C(=CC1=O)CC[C@@H]1[C@@H]2CC[C@]2(C)C(n3ccnc3)=CC[C@@H]12 [Compound 146] | 1 to 50 | – | – | Biological Example No. 9: CYP11B percent inhibition at 100 nM [6]: U (U means the compound had a percent inhibition of greater than or equal to 32%)
< 11 | 1 to 10 | < 30 | > 80 | C[C@]12CC[C@H]3[C@@H](CC[C@H]4CC(=O)NCC[C@@]43C)C1=CC=C2c1cccnc1 [Compound 165, (5aS,5bS,7aS,10bR,12aS)-5a,7a-dimethyl-8-(pyridin-3-yl)-3,4,5,5a,5b,6,7,7a,10b,11,12,12a-dodecahydrocyclopenta[5,6]naphtho[1,2-d]azepin-2(1H)-one] | 1 to 50 | – | – | Biological Example No. 9: CYP11B percent inhibition at 100 nM [6]: na (“na” means the compound was not active under the conditions tested)
– | – | – | – | COC(=O)N[C@@H]1CC[C@@]2(C)C(CCC3C2CC[C@]2(C)C(c4cccnc4)=CCC32)C1 (stereo partly drawn) [Compound 219, methyl ((3R,10S,13S)-10,13-dimethyl-17-(pyridin-3-yl)-2,3,4,5,6,7,8,9,10,11,12,13,14,15-tetradecahydro-1H-cyclopenta[a]phenanthren-3-yl)carbamate] | – | > 50 | 1 to 50 | –
– | – | – | – | COc1cncc(C2=CCC3C4CCC5C[C@H](NC(C)=O)CC[C@]5(C)C4CC[C@]23C)c1 (stereo partly drawn) [Compound 222, N-((3R,10S,13S)-17-(5-methoxypyridin-3-yl)-10,13-dimethyl-2,3,4,5,6,7,8,9,10,11,12,13,14,15-tetradecahydro-1H-cyclopenta[a]phenanthren-3-yl)acetamide] | – | > 50 | 1 to 50 | –
– | – | – | – | CC(=O)N[C@@H]1CC[C@@]2(C)C(=CC[C@@H]3[C@@H]2CC[C@]2(C)C(c4cncc(C(F)(F)F)c4)=CC[C@@H]32)C1 [Compound 231, N-((3R,10R,13S)-10,13-dimethyl-17-(5-(trifluoromethyl)pyridin-3-yl)-2,3,4,7,8,9,10,11,12,13,14,15-dodecahydro-1H-cyclopenta[a]phenanthren-3-yl)acetamide] | – | 10 to 50 | 1 to 50 | –
– | – | – | – | CCNC(=O)N[C@@H]1CC[C@@]2(C)C(=CC[C@@H]3[C@@H]2CC[C@]2(C)C(c4cccnc4)=CC[C@@H]32)C1 [Compound 232, 1-((3R,10R,13S)-10,13-dimethyl-17-(pyridin-3-yl)-2,3,4,7,8,9,10,11,12,13,14,15-dodecahydro-1H-cyclopenta[a]phenanthren-3-yl)-3-ethylurea] | – | > 50 | 1 to 50 | –
– | – | – | – | CC(=O)N[C@@H]1CC[C@@]2(C)C(CC[C@H]3C4=CC=C(c5cccnc5)[C@@]4(C)CC[C@@H]32)C1 (stereo partly drawn) [Compound 244, N-((3R,10S,13S)-10,13-dimethyl-17-(pyridin-3-yl)-2,3,4,5,6,7,8,9,10,11,12,13-dodecahydro-1H-cyclopenta[a]phenanthren-3-yl)acetamide] | – | > 50 | 1 to 50 | –
– | – | – | – | C[C@@]1(O)CC[C@@]2(C)C(=CCC3C2CC[C@]2(C)C(c4cncc(F)c4)=CCC32)C1 (stereo partly drawn) [Compound 269, (3R,10R,13S)-17-(5-fluoropyridin-3-yl)-3,10,13-trimethyl-2,3,4,7,8,9,10,11,12,13,14,15-dodecahydro-1H-cyclopenta[a]phenanthren-3-ol] | – | – | > 50 | inhibition at 0.001 µM ([7]; test compound at 1 nM, read-out: CYP17 enzymatic assay percent inhibition at 1 nM (Biological Example No. 12)): > 50%

SMILES | IC50 [1, 8] [nM] | half-life at 1 μM [2] [min] | inhibition at 0.1 µM [3] [%] | inhibition at 0.01 µM [4] [%] | half-life at 1 μM [5] [min] | inhibition at 0.001 µM [7, 9] [%] | half-life at 1 μM (in vitro) [min] | also measured
C[C@]12CC[C@H]3[C@@H](CCC4=CC(=O)CC[C@@]43C)C1=CC=C2n1ccnc1 [Compound 75, (10R,13S)-17-(1H-imidazol-1-yl)-10,13-dimethyl-6,7,8,9,10,11,12,13-octahydro-1H-cyclopenta[a]phenanthren-3(2H)-one] | < 11 | 10 to 60 | < 30 | > 80 | > 50 | – | – | Biological Example No. 9: CYP11B percent inhibition at 100 nM [6]: U (U means the compound had a percent inhibition of greater than or equal to 32%)
C[C@]12CCNC(=O)C[C@@H]1CC[C@@H]1[C@@H]2CC[C@]2(C)C(n3ccnn3)=CC[C@@H]12 [Compound 137] | < 11 | 10 to 60 | – | > 80 | > 50 | – | – | IC50 (CYP17 (H295R cells)): < 15 nM
C[C@]12CC[C@H]3[C@@H](CC[C@H]4C[C@@H](O)CC[C@@]43C)C1=CC=C2n1ccnc1 [Compound 170, (5S,8R,9S,10S,13S)-17-(1H-imidazol-1-yl)-10,13-dimethyl-2,3,4,5,6,7,8,9,10,11,12,13-dodecahydro-1H-cyclopenta[a]phenanthren-3-ol] | – | 10 to 60 | – | > 80 | > 50 | – | – | IC50 [1]: < 11 nM; IC50 (CYP17 (H295R cells)): < 15 nM
